Literature values in publication PMC7933317 (Probiotics and antimicrobial proteins, 2021).

Test system: human red blood cells (RBCs)
Conditions: over the same concentration range; ref [30]

ALWKKLLKKLLKSAKKLG [C18G]
hemolysis of human RBCs: < 10%
